The results in this text go back to article PMC6934184, “Selective DNA-PKcs inhibition extends the therapeutic index of localized radiotherapy and chemotherapy” (The Journal of Clinical Investigation, 2019).

The target in this test is T1, FLT3 (Homo sapiens, UniProt P36888).
T1 construct: purchased Thermo Fisher Scientific (Life Technologies) SelectScreen
Description: SelectScreen Z'LYTE. In kind it is biochemical. A digest of the protocol:
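SelectScreen broad panel; activity (Z'LYTE, Adapta) plus binding formats. ATP: Km app for CSF1R Z'LYTE; 10 for CAMK1 Adapta. Readout = % per kinase.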

T1 sequence (P36888 27-993): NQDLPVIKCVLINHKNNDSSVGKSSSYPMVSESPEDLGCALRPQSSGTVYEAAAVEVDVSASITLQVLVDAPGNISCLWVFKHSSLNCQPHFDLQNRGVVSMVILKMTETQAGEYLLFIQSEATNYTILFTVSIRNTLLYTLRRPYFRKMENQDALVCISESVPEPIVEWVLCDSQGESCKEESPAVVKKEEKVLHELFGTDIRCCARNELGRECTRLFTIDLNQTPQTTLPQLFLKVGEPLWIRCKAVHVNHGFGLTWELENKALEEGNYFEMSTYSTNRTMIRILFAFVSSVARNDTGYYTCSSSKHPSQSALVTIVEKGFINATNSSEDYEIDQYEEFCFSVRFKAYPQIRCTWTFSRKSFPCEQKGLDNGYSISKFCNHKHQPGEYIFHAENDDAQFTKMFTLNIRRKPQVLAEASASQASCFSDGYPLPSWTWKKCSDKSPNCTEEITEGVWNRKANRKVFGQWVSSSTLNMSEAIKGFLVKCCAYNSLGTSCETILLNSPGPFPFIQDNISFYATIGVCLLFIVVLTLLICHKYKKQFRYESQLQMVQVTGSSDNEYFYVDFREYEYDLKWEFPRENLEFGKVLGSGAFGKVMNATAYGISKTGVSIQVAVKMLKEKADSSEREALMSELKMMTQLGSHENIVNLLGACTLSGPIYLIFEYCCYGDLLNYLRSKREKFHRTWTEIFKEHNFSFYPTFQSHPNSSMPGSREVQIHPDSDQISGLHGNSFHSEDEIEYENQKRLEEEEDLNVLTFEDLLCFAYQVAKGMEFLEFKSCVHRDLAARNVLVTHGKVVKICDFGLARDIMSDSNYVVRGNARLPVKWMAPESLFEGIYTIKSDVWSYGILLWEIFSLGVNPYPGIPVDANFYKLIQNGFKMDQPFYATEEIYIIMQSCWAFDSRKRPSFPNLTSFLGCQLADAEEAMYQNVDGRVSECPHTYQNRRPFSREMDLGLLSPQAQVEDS

As for `CN(C(=O)CN1CCOCC1)c1ccc2sc3c(-c4cccc5c(=O)cc(N6CC7CCC(C6)O7)oc45)cccc3c2c1` [NU5455], the inhibition (in general, how much of the control response was suppressed) at 1 µM came to 9.1%.
